Experimental data taken from ChEMBL document CHEMBL3045199, “Synthesis of some (E)-6-[2-(furan-2-yl)ethenyl]-1,2,4-triazin-5-ones and their biological evaluation as antitumor agents” (2013).

Tests used:
Format in all cases: functional
MDA-MB-468 = assay: Cytotoxicity against Homo sapiens (human) MDA-MB-468 cells after 48 hr by SRB assay; conditions: MDA-MB-468, 48 h
SR = assay: Cytotoxicity against Homo sapiens (human) SR cells assessed as growth inhibition at 10 uM after 24 hr; conditions: read-out: GI
KM12 = assay: Cytotoxicity against Homo sapiens (human) KM12 cells assessed as growth inhibition at 10 uM after 24 hr; conditions: KM12, 24 h, read-out: GI
SF-268 = assay: Cytotoxicity against Homo sapiens (human) SF268 cells assessed as growth inhibition at 10 uM after 24 hr; conditions: SF-268, 24 h, read-out: GI
[1] = Cytotoxicity against Homo sapiens (human) NCI-ADR-RES cells assessed as growth inhibition at 10 uM after 24 hr; conditions: read-out: GI
OVCAR-4 = assay: Cytotoxicity against Homo sapiens (human) OVCAR4 cells assessed as growth inhibition at 10 uM after 24 hr; conditions: OVCAR-4, 24 h, read-out: GI
LOX IMVI = assay: Cytotoxicity against Homo sapiens (human) LOXIMVI cells assessed as growth inhibition at 10 uM after 24 hr; conditions: read-out: GI
OVCAR-5 = assay: Cytotoxicity against Homo sapiens (human) OVCAR5 cells assessed as growth inhibition at 10 uM after 24 hr; conditions: OVCAR-5, 24 h, read-out: GI
[2] = Cytotoxicity against Homo sapiens (human) non-small cell lung cancer cells after 48 hr by SRB assay; conditions: Cancer cell lines
NCI-H226 = assay: Cytotoxicity against Homo sapiens (human) NCI-H226 cells assessed as growth inhibition at 10 uM after 24 hr; conditions: NCI-H226, 24 h, read-out: GI
[3] = Cytotoxicity against Homo sapiens (human) colon cancer cells after 48 hr by SRB assay; conditions: Cancer cell lines
K562 = assay: Cytotoxicity against Homo sapiens (human) K562 cells assessed as growth inhibition at 10 uM after 24 hr; conditions: K562, 24 h, read-out: GI
[4] = read-out: LC50 (the source's name)

## Nc1cc(-c2ccc(Cl)cc2)nn1-c1nc(=O)c(/C=C/c2ccco2)n[nH]1
MDA-MB-468
  GI50: 3.08 µM
  TGI: 22.2 µM
MDA-MB-468; [4]
  CC50: > 100 µM
SR
  inhibition of growth at 10 µM: 61.9%
KM12
  inhibition of growth at 10 µM: 44%
SF-268
  inhibition of growth at 10 µM: 47.5%
[1]
  inhibition of growth at 10 µM: 94.3%
OVCAR-4
  inhibition of growth at 10 µM: 70.9%
LOX IMVI
  inhibition of growth at 10 µM: 50.1%
OVCAR-5
  inhibition of growth at 10 µM: 39.1%
[2]
  GI50: 4.47 µM
  TGI: 41.1 µM
[2]; [4]
  CC50: > 100 µM
NCI-H226
  inhibition of growth at 10 µM: 52.6%
[3]
  GI50: 4.27 µM
  TGI: 22 µM
[3]; [4]
  CC50: > 100 µM
K562
  inhibition of growth at 10 µM: 58.3%
